Assays:
Assay type in all cases: cell-based
[1] = target: T1, human cloned CHRM3 receptor (Homo sapiens, UniProt P20309); assay: CHRM3 Ca++ Flux Assay (M3_CHO cells, agonist mode); details: for Emax: Percent Activity (PA) measured to EC100 of Carbachol, read-out: M3 FDSS PA %; for EC50: agonist mode, geometric mean if tested more than once, read-out: M3 FDSS EC50
T1 construct: expressed in transfected cells; host or cells: CHO-K1 (M3_CHO)
In short: (§1)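 CHO-K1 cells stably expressing human M3 or M5 receptor, dye-loaded ≥1 h, treated with 11-point compound doses in triplicate; Ca++ flux read over 3 min (FDSS). Agonist-mode four-parameter fit; percent activity relative to carbachol EC100; repeat tests reported as geometric mean.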

[2] = target: T2, human cloned CHRM5 receptor (Homo sapiens, UniProt P08912); assay: CHRM5 Ca++ Flux Assay (M5_CHO cells, agonist mode); details: for Emax: Percent Activity (PA) measured to EC100 of Carbachol, read-out: M5 FDSS PA %; for EC50: agonist mode, geometric mean if tested more than once, read-out: M5 FDSS EC50
T2 construct: expressed in transfected cells; host or cells: CHO (M5_CHO)
T2 sequence (P08912 1-532): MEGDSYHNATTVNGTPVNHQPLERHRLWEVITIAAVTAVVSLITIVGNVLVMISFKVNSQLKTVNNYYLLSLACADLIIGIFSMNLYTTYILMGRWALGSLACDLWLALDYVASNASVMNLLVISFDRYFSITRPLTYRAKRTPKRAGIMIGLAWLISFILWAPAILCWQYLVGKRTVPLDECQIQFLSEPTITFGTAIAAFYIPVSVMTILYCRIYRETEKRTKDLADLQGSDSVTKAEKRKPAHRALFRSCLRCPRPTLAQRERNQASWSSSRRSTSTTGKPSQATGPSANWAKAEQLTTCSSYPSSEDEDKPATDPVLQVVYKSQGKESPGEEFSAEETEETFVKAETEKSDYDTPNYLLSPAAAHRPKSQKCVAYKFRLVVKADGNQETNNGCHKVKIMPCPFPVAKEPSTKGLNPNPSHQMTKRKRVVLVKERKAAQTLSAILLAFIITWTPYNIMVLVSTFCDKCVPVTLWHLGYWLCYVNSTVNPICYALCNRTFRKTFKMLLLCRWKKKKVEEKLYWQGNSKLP
In short: as §1

[3] = target: T3, Cloned human M1 receptor (CHRM1) (Homo sapiens, UniProt P11229); assay: CHRM1 Ca++ Flux Assay (HEK293 M1 cells, agonist mode); details: for Emax: Percent Activity (PA), read-out: M1 FDSS PA %; for EC50: geometric mean if tested more than once, read-out: M1 FDSS EC50
T3 construct: expressed in transfected cells; host or cells: HEK293
T3 sequence (P11229 1-460): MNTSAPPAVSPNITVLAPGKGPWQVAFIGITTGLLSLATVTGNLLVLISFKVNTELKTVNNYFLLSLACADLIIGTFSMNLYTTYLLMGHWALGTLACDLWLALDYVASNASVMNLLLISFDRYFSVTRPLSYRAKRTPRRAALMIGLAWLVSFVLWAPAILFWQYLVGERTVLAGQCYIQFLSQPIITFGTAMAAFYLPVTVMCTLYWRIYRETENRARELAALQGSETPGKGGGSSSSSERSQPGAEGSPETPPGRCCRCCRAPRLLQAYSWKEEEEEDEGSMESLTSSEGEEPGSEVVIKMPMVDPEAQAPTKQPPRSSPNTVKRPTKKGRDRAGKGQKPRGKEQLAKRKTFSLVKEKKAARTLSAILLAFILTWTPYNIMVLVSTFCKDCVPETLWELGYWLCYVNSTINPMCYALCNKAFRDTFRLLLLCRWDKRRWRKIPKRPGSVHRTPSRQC
In short: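 HEK293 cells stably expressing human M1 were loaded with Ca++ dye, then given compounds (11-point dose, triplicate) in HBSS −Ca/−Mg, 20 mM HEPES. Ca++ flux was read over 3 min (agonist mode). Four-parameter curves were fitted, with activity as percent of carbachol EC100.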

T1 sequence (P20309 whole entry): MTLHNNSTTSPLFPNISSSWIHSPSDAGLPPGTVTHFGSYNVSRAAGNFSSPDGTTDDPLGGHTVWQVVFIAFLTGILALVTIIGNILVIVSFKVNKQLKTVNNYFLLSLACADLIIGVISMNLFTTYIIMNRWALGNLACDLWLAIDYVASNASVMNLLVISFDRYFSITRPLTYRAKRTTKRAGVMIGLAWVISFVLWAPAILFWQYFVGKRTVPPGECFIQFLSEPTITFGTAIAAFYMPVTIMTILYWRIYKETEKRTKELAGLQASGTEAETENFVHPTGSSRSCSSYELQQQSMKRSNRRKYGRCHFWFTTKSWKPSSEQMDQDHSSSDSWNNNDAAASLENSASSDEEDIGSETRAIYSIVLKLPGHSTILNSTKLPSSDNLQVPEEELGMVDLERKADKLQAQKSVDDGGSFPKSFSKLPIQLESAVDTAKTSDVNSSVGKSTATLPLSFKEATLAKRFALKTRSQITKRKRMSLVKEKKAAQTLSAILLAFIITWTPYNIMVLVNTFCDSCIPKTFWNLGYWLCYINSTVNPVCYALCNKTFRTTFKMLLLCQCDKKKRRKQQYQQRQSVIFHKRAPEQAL

Structure (SMILES)	Emax [1]	EC50 [1]	Emax [2]	EC50 [2]	Emax [3]	EC50 [3]
c1ccc(C2CCN([C@@H]3COC4(C3)CN(c3ncco3)C4)CC2)c(O[C@H]2CCOC2)c1 [Example 4H, (S)-2-(oxazol-2-yl)-7-(4-(2-(((S)-tetrahydrofuran-3-yl)oxy)phenyl)piperidin-1-yl)-5-oxa-2-azaspiro[3.4]octane]	0%	> 25 µM	0%	> 25 µM	63%	0.745 µM
COc1ccc(F)cc1C1CCN([C@@H]2COC3(C2)CN(c2ncco2)C3)CC1 [Example 4I, (S)-7-(4-(5-fluoro-2-methoxyphenyl)piperidin-1-yl)-2-(oxazol-2-yl)-5-oxa-2-azaspiro[3.4]octane]	0%	> 25 µM	0%	> 25 µM	82%	0.227 µM
CC(C)(O)COc1ccc(F)cc1C1CCN([C@@H]2COC3(C2)CN(c2ncco2)C3)CC1 [Example 4K, (S)-1-(4-fluoro-2-(1-(2-(oxazol-2-yl)-5-oxa-2-azaspiro[3.4]octan-7-yl)piperidin-4-yl)phenoxy)-2-methylpropan-2-ol]	0%	> 25 µM	0%	> 25 µM	60%	0.444 µM
COCCOc1ccc(F)cc1C1CCN([C@@H]2COC3(C2)CN(c2ncco2)C3)CC1 [Example 4L, (S)-7-(4-(5-fluoro-2-(2-methoxyethoxy)phenyl)piperidin-1-yl)-2-(oxazol-2-yl)-5-oxa-2-azaspiro[3.4]octane]	0%	> 25 µM	0%	> 25 µM	66%	0.336 µM
COc1ccccc1C1CCN([C@@H]2COC3(C2)CN(c2ncco2)C3)CC1 [Example 4N, (S)-7-(4-(2-methoxyphenyl)piperidin-1-yl)-2-(oxazol-2-yl)-5-oxa-2-azaspiro[3.4]octane]	0%	> 25 µM	0%	> 25 µM	64%	0.384 µM
Fc1cc(OCC2COC2)c(C2CCN([C@@H]3COC4(C3)CN(c3ncco3)C4)CC2)cc1F [Example 4O, (S)-7-(4-(4,5-difluoro-2-(oxetan-3-ylmethoxy)phenyl)piperidin-1-yl)-2-(oxazol-2-yl)-5-oxa-2-azaspiro[3.4]octane]	0%	> 25 µM	0%	> 25 µM	63%	0.364 µM

Now from value to compound:

Emax [1]	EC50 [1]	Emax [2]	EC50 [2]	Emax [3]	EC50 [3]	Structure (SMILES)
0%	> 25 µM	0%	> 25 µM	62%	1.76 µM	Fc1ccc(OC2CC3(COC3)C2)c(C2CCN([C@@H]3COC4(C3)CN(c3ncco3)C4)CC2)c1 [Example 4G, (S)-7-(4-(2-((2-oxaspiro[3.3]heptan-6-yl)oxy)-5-fluorophenyl)piperidin-1-yl)-2-(oxazol-2-yl)-5-oxa-2-azaspiro[3.4]octane]
0%	> 25 µM	0%	> 25 µM	72%	1.67 µM	c1ccc(C2CCN([C@@H]3COC4(C3)CN(c3ncco3)C4)CC2)c(OC2CCOCC2)c1 [Example 4J, (S)-2-(oxazol-2-yl)-7-(4-(2-((tetrahydro-2H-pyran-4-yl)oxy)phenyl)piperidin-1-yl)-5-oxa-2-azaspiro[3.4]octane]
0%	> 25 µM	0%	> 25 µM	49%	2.81 µM	c1ccc(C2CCN([C@@H]3COC4(C3)CN(c3ncco3)C4)CC2)c(OC2CC3(COC3)C2)c1 [Example 4M, (S)-7-(4-(2-((2-oxaspiro[3.3]heptan-6-yl)oxy)phenyl)piperidin-1-yl)-2-(oxazol-2-yl)-5-oxa-2-azaspiro[3.4]octane]

— patent publication US11485742B2, “2-azaspiro[3.4]octane derivatives as M4 agonists” (NOVARTIS AG, priority 2019, dated 2022)
